The source of these data is PMC12436592 (Nature Communications, 2025).

“And” between values parts separate entries of the source, which are not always exact repeats. Identical values can stand only once. “Also recorded” adds a separate entry of the source.

For orientation: inhibition means the percentage by which the read-out fell short of the control. For orientation: IC50 means the concentration needed to halve the response being measured.

One experiment deals with T1, hP2X3R (Homo sapiens, UniProt P56373, S15V).
T1 construct: expressed in transfected cells; host or cells: 1321N1 astrocytoma cells, retroviral expression system
T1 sequence (P56373 1-397 S15V): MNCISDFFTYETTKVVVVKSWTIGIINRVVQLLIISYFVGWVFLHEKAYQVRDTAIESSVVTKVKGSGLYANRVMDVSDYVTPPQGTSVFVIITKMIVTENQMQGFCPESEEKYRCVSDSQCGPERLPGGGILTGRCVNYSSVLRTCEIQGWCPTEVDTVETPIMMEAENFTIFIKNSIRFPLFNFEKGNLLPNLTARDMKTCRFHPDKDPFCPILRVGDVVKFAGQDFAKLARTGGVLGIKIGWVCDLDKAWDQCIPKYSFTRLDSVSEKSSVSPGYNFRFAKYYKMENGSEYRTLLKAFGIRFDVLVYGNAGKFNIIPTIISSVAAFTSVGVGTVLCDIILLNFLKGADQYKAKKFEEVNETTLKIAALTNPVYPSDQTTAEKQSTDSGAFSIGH
The experiment in a line: Calcium influx assay, 1321N1 astrocytoma cells, ATP EC80. The class given is cell-based. The source says: For 1321N1 astrocytoma cells stably expressing the human, rat, or mouse P2X7Rs, or hP2X2Rs or hP2X4Rs, the fluorescent Ca^2+-chelating dye Fluo-4 acetoxymethyl ester (Fluo-4 AM, Thermo Fisher Scientific, Dreieich, Germany) was used. For 1321N1 astrocytoma cell lines recombinantly expressing the hP2X1Rs or hP2X3Rs, the FLIPR® Calcium 5 Assay Kit (Molecular Devices, San José, CA, USA) was employed. Human, rat, and mouse P2X7Rs as well as hP2X1Rs, hP2X2Rs, hP2X3Rs, and hP2X4Rs were recombinantly expressed in 1321N1 astrocytoma cells using a retroviral expression system[72]–[74].
On the first day, 45,000 cells per well (30,000 cells for the human P2X3 receptor-expressing cells) were seeded into a 96-well polystyrene microplate with a black, flat bottom in a final volume of 200 µL. After overnight incubation at 37 °C and 10% CO2 (5% CO2 for the human P2X3R-expressing cell line), the medium was removed by inverting the plate, and the cells were loaded with dye solution. Hanks’ balanced salt solution (HBSS, Thermo Fisher Scientific, Dreieich, Germany) was used as the assay buffer for human P2X1R, P2X2R, P2X3R, and P2X4R. For the P2X7Rs, a different assay buffer was used: 150 mM sodium-glutamate, 5 mM KCl, 0.5 mM CaCl2, 0.1 mM MgCl2, 10 mM D-glucose, 25 mM 4-(2-hydroxyethyl)-1-piperazineethanesulfonic acid (HEPES), pH 7.4. The dye solutions were freshly prepared. The Fluo-4 AM solution contained 3 µM of Fluo-4 AM in assay buffer and 1% of the non-ionic detergent Pluronic F-127® (Sigma-Aldrich, Taufkirchen, Germany). The Calcium 5 dye, used for hP2X1Rs and hP2X3Rs, was prepared in HBSS buffer. Cells were loaded with Fluo-4 AM and incubated for 1 h at room temperature with gentle shaking (100 rpm), while those loaded with the Calcium 5 dye were incubated for 1 h at 37 °C. After incubation, the dye solution was carefully removed from the plate, and buffer was added to the cells for the evaluation of agonists. […] The agonist solution was prepared in a 96-well transparent plate, obtaining the respective EC80 values. As a control, assay buffer without the test compound was used. After 30 min of incubation with antagonist, the plates were measured using a fluorescence imaging plate reader NOVOstar (BMG Labtech GmbH, Offenburg, Germany) at an excitation wavelength of 485 nm and an emission wavelength of 520 nm, for 30 s at 0.4 s intervals. Calcium influx measurements were then initiated by automatic addition of 20 µL of agonist solution by the plate reader’s pipetting device. Data were analyzed using Microsoft Excel and GraphPad Prism (Version 8.0, San Diego, CA, USA). EC80 and IC50 values were calculated using nonlinear regression with a sigmoidal dose-response equation.

The subject of a further experiment is T2, hP2X4R.
T2 construct: expressed in transfected cells; host or cells: Xenopus laevis oocytes (cRNA, pNKS2 vector)
The experiment in a line: TEVC current traces with co-applied antagonist in Xenopus oocytes. The class given is cell-based, human. As to conditions: 300 µM ATP, 100 nM antagonist.

As for `O=C(NNc1ccccc1Cl)C12CC3CC(CC(C3)C1)C2` [UB-ALT-P30, reference compound], the inhibition at 10 µM on hP2X3R (1321-N1, read-out: % inhibition ± SD at 10 μM, hP2X3R, 10 μM antagonist, ATP 100 nM) was 86 ± 9%. Further, the “hP2X3R inhibition at 10 μM” value at hP2X3R (Log(c) M -5, single values, 10 µM, in % (unit assumed)) is 94.9053 and 93.1871 and 60.8032 and 85.3564 and 91.979 and 90.698 and 90.7697 and 79.3438. At hP2X3R (Log(c) M -6, in %), the “hP2X3R inhibition, IC50 curve” value is 58.8384 and 67.0023 and 59.1901 and 77.3652. Also, the “fold more potent at the hP2X7R versus the hP2X3R” value at hP2X3R (calcium influx IC50 ratio) came out at 40 fold. The IC50 on hP2X3R (calcium influx, estimated) was 707 ± 185 nM.
As for `CC12CC3CC1(C)C1(C)CC3(C(=O)NNc3ccccc3Cl)CC21C` [UB-MBX-46], the “antagonism of the hP2X4R” value with hP2X4R is recorded as “virtually no antagonism; also recorded: negligible”.
